According to patent US9453031B2, “Chemical entities” (Fundación Centro Nacional de Investigaciones Oncológicas …, priority 2013, dated 2016):

Molecular target: DNA-PK (Homo sapiens (Human), UniProt P78527)
Experiment: DNAPK activity assay (ADP Hunter Plus)
Format: biochemical
Conditions: 75 μM ATP
Protocol: The kinase activity was measured by using the commercial ADP Hunter™ Plus assay available from DiscoveRx (#90-0083), which is a homogeneous assay to measure the accumulation of ADP, a universal product of kinase activity. The enzyme, DNA-PK was purchased from Promega (#V5811). The assay was done following the manufacturer recommendations with slight modifications: Mainly the kinase buffer was replace by 15 mM HEPES, pH 7.5, 10 mM MgCl2, 20 mM NaCl, 1 mM EGTA, 0.1 mg/mL BGG, 0.02% Tween 20. The DNA-PK was assayed in a titration experiment to determine the optimal protein concentration for the inhibition assay. To calculate the […] of the Compounds, serial 1:3 dilutions of the compounds were added to the enzyme at a fixed concentration (2 U/μL). The enzyme was preincubated with the inhibitor and 200 μM DNA substrate and then ATP was added to a final 75 μM concentration. Reaction was carried out for 1 hour at 37° C. Reagent A and B were sequentially added to the wells and plates were incubated for 30 min at RT. Fluorescence counts were read in a EnVision instrument (Perkin Elmer) with the recommended settings (550 and 590 nm as excitation and emission wavelengths, respectively).

SMILES | IC50 [nM]
CC(C)(c1nc(-c2c(F)ccc3[nH]ccc23)nc2c1OC[C@H]1COCCN21)S(C)(=O)=O [Example 26] | 10000
CS(=O)(=O)C1(c2nc(-c3ccc(F)c4[nH]ccc34)nc3c2OC[C@@H]2COCCN32)CCOCC1 [Example 106] | 1160

Molecular target: ATR (Homo sapiens (Human), UniProt Q13535)
Sequence (Q13535 whole entry): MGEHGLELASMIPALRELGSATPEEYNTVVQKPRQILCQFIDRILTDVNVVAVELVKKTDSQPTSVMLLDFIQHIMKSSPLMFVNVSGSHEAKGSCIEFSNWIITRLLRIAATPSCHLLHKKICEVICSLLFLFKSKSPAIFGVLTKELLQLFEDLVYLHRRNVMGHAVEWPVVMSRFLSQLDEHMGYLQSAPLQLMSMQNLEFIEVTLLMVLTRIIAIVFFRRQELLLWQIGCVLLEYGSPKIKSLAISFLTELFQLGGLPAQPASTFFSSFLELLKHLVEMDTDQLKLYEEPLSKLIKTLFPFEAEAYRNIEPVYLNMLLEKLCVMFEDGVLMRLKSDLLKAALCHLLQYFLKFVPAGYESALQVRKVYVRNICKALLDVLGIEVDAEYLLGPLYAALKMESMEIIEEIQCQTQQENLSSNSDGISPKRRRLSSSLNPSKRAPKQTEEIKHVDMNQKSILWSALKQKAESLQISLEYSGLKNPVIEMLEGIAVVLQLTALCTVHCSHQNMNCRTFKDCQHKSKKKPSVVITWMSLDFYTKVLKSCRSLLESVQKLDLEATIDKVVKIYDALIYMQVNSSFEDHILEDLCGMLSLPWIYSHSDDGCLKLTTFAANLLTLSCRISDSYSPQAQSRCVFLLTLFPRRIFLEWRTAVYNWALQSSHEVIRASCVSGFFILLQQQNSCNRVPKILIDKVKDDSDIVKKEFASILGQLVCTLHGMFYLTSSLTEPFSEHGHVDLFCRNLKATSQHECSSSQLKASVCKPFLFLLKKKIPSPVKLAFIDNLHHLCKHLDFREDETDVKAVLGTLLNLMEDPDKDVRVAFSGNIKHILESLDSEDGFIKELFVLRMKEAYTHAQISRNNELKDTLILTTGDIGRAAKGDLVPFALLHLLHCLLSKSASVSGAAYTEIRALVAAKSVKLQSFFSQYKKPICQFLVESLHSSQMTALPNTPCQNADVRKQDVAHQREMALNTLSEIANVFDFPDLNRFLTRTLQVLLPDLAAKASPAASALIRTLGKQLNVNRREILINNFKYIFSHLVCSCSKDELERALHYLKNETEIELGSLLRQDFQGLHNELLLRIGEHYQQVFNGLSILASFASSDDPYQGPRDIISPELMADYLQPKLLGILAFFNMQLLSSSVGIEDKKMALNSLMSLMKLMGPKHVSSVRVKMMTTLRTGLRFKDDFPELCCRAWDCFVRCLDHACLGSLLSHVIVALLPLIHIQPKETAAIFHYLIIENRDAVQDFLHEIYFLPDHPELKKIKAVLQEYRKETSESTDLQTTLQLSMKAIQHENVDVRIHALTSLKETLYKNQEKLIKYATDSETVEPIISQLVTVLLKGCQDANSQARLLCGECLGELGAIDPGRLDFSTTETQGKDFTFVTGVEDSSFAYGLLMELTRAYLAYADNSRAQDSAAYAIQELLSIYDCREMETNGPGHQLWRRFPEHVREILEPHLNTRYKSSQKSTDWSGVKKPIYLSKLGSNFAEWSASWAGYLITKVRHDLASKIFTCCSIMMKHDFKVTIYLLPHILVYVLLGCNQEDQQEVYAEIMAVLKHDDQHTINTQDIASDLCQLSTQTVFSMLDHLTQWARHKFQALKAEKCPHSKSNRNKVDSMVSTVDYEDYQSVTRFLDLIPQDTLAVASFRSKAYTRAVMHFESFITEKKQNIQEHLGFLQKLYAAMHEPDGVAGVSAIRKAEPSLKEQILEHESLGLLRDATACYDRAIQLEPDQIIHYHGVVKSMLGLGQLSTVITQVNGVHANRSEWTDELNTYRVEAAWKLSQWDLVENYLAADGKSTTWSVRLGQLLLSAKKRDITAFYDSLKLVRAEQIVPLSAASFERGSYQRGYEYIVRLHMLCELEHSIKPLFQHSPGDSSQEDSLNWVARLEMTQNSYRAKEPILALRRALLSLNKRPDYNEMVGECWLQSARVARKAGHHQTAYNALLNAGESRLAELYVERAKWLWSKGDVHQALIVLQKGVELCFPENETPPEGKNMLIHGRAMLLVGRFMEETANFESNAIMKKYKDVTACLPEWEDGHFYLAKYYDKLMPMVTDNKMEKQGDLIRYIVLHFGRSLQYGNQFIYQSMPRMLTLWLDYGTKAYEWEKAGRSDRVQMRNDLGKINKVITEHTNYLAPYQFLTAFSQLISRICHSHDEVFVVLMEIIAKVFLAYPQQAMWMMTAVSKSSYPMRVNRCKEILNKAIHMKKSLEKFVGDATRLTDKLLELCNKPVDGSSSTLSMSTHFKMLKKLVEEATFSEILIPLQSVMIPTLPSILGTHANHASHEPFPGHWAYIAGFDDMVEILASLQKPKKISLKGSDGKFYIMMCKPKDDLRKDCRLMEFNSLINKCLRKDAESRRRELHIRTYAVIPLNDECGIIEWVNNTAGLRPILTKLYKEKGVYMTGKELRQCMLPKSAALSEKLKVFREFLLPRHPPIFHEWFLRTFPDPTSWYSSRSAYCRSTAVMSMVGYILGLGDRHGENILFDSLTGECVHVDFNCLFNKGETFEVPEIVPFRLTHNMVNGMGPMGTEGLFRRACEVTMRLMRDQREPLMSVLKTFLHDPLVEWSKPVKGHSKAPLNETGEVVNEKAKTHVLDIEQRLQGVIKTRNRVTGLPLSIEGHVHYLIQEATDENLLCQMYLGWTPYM
Experiment: Cellular ATR inhibition, western blot of CHK1(S345) phosphorylation in hydroxyurea treated cells
Format: cell-based
Conditions: HT29 cells, hydroxyurea 2.5 mM
Protocol: In addition to the selective system described above, Example compounds presented here were screened for their ability to inhibit intracellular ATR using a western blot assay to detect phosphorylation of the ATR substrate CHK1(S345) in hydroxyurea treated cells. HT29 cells are plated at 500,000 cells per well in 6-well plates in RPMI media (Sigma R6504) supplemented with 10% foetal bovine serum (Sigma F7524), Penicillin/Streptomycin solution diluted 1:100 (Gibco 15070-063), and fungizone (Gibco, 15290-018), and allowed to adhere overnight at 37° C. in 5% CO2. Compounds are then added to the cell media from a final concentration of 10 μM in 3-fold serial dilutions and the cells are incubated at 37° C. in 5% CO2. After 15 min, hydroxyurea (Sigma H8627) is added to a final concentration of 2.5 mM. After 30 min of treatment with hydroxyurea, the cells are washed in PBS, lysed adding 50 μl of in protein lysis buffer (50 mM Tris pH 7.5, 150 mM NaCl, 1% IGEPAL CO-630 (Sigma, Ref. 542334-100G-A), Phospho Stop (Roche, Ref. 04906837001) and Complete Mini EDTA free (Roche, Ref. 11836170001)). The protein content of the lysates was determined by the modified method of Bradford (Sigma, Ref. B6916). The proteins were resolved by SDS-PAGE and transferred to nitrocellulose membrane (VWR International Eurolab, Ref. 732-4007). The membranes were incubated overnight at 4° C. with antibodies specific for total CHK1 (Santa Cruz Biotechnology, sc-8404), phosphoserine-345 CHK1 (Cell Signaling Technology #2348) they were washed and then incubated with IRDye800 conjugated anti-mouse (Pierce/Cultek, 35521) and Alexa Fluor 680 goat anti-rabbit IgG secondary antibodies (Invitrogen, A21076). The bands were visualized and quantified using an Odyssey infrared imaging system (Li-Cor Biosciences). The percentage of phosphorylated CHK1 vs total CHK1 in cells treated with hydroxyurea was taken as hundred percent of phosphorylation. The percentage of CHK1 phosphorylation is finally plotted against concentration for each compound and EC50s for intracellular ATR inhibition are calculated using ActivityBase from IDBS.

SMILES | EC50 [nM]
CN(C)c1nc2ccccc2n1-c1nc2c(c(C(C)(C)S(C)(=O)=O)n1)OC[C@@H]1COCCN21 [Example 79] | 100 to 1000
CC(C)(c1nc(-c2c(F)ccc3[nH]ccc23)nc2c1OC[C@H]1COCCN21)S(C)(=O)=O [Example 26] | > 1000
CC(C)(O)c1nc(-c2cccc3[nH]ccc23)nc2c1OCC1COCCN21 (centres unmarked) [Example 38] | 100 to 1000
COc1cc(-c2nc3c(c(C4(S(C)(=O)=O)CCOCC4)n2)OCC2COCCN32)c2cc[nH]c2c1 (centres unmarked) [Example 19] | < 100
C[S@TB17](=O)(=O)C1(c2nc(-c3cc(F)cc4[nH]ccc34)nc3c2OCCC2COCCN32)CCOCC1 (centres unmarked) [Example 33] | 100 to 1000
CNc1nc2ccccc2n1-c1nc2c(c(C3(S(C)(=O)=O)CCOCC3)n1)OCC1COCCN21 (centres unmarked) [Example 12] | 100 to 1000
CS(=O)(=O)C1(c2nc(-c3c(F)ccc4[nH]ccc34)nc3c2OCC2COCCN32)CCOCC1 (centres unmarked) [Example 13] | 100 to 1000
CS(=O)(=O)C1(c2nc(-c3ccc(F)c4[nH]ccc34)nc3c2OC[C@@H]2COCCN32)CCOCC1 [Example 106] | > 1000
C[S@TB17](=O)(=O)Nc1nc(-c2cccc3[nH]ccc23)nc2c1OCC1COCCN21 (centres unmarked) [Example 35] | > 1000
COc1ccc(-c2nc3c(c(C4(S(C)(=O)=O)CCOCC4)n2)OCC2COCCN32)c2cc[nH]c12 (centres unmarked) [Example 37] | 100 to 1000
c1cc(-c2nc(-c3cccc4[nH]ccc34)c3c(n2)N2CCOCC2CO3)c2cc[nH]c2c1 (centres unmarked) [Example 42] | 100 to 1000
CNc1nc2cc(Cl)ccc2n1-c1nc2c(c(C3(S(C)(=O)=O)CCC3)n1)OC[C@@H]1COCCN21 [Example 94] | > 1000
CC(C)(c1nc(-c2cccc3[nH]ncc23)nc2c1OC[C@H]1COCCN21)S(C)(=O)=O [Example 21] | > 1000
CNc1nc2ccc(Cl)cc2n1-c1nc2c(c(C3(S(C)(=O)=O)CCC3)n1)OC[C@@H]1COCCN21 [Example 95] | > 1000
CC1(c2nc(-c3cccc4[nH]ccc34)nc3c2OCC2COCCN32)CCCS1(=O)=O (centres unmarked) [Example 41] | 100 to 1000
CS(=O)(=O)c1cccc(-c2nc(-c3cccc4[nH]ccc34)nc3c2OCC2COCCN32)c1 (centres unmarked) [Example 43] | 100 to 1000
CC(C)Nc1nc2ccccc2n1-c1nc2c(c(C(C)(C)S(C)(=O)=O)n1)OC[C@@H]1COCCN21 [Example 63] | < 100
CC(C)(c1nc(-c2c(F)ccc3[nH]ccc23)nc2c1OCC1COCCN21)S(C)(=O)=O (centres unmarked) [Example 14] | 100 to 1000
CS(=O)(=O)C1(c2nc(-c3cccc4[nH]ccc34)nc3c2OCC2COCCN32)CC1 (centres unmarked) [Example 27] | 100 to 1000
CS(=O)(=O)C1(c2nc(-c3cccc4[nH]ccc34)nc3c2OCC[C@@H]2COCCN32)CCOCC1 [Example 22] | 100 to 1000
CS(=O)(=O)Cc1nc(-c2cccc3[nH]ccc23)nc2c1OCC1COCCN21 (centres unmarked) [Example 7] | 100 to 1000
CN1CCC(c2nc(-c3cccc4[nH]ccc34)nc3c2OCC2COCCN32)(S(C)(=O)=O)CC1 (centres unmarked) [Example 36] | > 1000

Molecular target: mTOR (Homo sapiens (Human), UniProt P42345)
Experiment: mTOR activity assay (LanthaScreen)
Format: biochemical
Conditions: not given
Protocol: The enzymatic mTOR activity was measured using a LanthaScreen™ kinase activity assay (Invitrogen). The enzyme was purchased from Invitrogen (PV4754), as well as the GFP-labelled substrate (4EBP1-GFP; PV4759) and the Tb-antip4EBP1(pThr46) antibody (PV4757). The assay was performed in 50 Mm HEPES buffer, pH 7.5, containing 1.5 mM MnCl2, 10 mM MgCl2, 1 mM EGTA, 2.5 mM DTT and 0.01% Tween-20. The concentration of the assay components were the following: 0.24 nM mTOR kinase, 400 nM 4EBP1-GFP, […] and serial dilutions of the compound (inhibitor) to be evaluated. After 1 h incubation at room temperature, 20 mM EDTA was used to stop the reaction and terbium-labelled antibody (4 nM) added to detect phosphorylated product. The antibody associates with the phosphorylated product resulting in an increased TR-FRET value. The TR-FRET value (a dimensionless number) was calculated as the ratio of the acceptor signal (GFP, emission at 520 nm) to the donor signal (terbium, emission at 495 nm).

SMILES | IC50 [nM]
CC(C)(c1nc(-c2c(F)ccc3[nH]ccc23)nc2c1OC[C@H]1COCCN21)S(C)(=O)=O [Example 26] | 10000
CS(=O)(=O)C1(c2nc(-c3ccc(F)c4[nH]ccc34)nc3c2OC[C@@H]2COCCN32)CCOCC1 [Example 106] | 10000

Molecular target: PI3K (p110α/p85α) (Homo sapiens (Human), UniProt P42336)
Sequence (P42336 whole entry): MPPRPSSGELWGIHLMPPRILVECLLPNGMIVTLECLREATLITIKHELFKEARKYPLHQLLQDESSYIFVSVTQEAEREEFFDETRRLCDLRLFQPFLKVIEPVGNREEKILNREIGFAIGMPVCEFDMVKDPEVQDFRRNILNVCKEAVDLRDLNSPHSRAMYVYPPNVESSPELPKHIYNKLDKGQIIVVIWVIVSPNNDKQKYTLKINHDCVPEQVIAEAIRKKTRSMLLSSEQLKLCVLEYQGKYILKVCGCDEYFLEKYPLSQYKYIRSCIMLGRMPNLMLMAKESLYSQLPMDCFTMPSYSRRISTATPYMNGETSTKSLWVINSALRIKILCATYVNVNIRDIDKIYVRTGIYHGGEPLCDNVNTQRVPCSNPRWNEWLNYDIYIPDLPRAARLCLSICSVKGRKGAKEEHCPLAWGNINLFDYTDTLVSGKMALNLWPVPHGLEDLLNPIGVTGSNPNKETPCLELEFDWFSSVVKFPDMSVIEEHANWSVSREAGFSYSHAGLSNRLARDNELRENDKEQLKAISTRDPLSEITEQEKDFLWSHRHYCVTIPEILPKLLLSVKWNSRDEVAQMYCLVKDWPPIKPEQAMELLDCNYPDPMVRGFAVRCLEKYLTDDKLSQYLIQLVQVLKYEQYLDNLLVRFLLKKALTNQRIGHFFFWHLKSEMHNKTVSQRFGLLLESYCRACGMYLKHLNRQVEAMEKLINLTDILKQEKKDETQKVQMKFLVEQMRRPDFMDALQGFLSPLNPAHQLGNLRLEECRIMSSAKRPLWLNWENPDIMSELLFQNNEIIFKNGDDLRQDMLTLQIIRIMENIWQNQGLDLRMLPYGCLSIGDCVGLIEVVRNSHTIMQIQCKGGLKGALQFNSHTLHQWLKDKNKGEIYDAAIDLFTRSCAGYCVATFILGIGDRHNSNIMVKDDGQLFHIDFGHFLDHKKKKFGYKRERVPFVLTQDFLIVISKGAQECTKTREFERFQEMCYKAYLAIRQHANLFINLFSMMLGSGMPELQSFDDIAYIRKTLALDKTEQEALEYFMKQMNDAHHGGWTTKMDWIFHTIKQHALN
Sequence (P27986 whole entry partner): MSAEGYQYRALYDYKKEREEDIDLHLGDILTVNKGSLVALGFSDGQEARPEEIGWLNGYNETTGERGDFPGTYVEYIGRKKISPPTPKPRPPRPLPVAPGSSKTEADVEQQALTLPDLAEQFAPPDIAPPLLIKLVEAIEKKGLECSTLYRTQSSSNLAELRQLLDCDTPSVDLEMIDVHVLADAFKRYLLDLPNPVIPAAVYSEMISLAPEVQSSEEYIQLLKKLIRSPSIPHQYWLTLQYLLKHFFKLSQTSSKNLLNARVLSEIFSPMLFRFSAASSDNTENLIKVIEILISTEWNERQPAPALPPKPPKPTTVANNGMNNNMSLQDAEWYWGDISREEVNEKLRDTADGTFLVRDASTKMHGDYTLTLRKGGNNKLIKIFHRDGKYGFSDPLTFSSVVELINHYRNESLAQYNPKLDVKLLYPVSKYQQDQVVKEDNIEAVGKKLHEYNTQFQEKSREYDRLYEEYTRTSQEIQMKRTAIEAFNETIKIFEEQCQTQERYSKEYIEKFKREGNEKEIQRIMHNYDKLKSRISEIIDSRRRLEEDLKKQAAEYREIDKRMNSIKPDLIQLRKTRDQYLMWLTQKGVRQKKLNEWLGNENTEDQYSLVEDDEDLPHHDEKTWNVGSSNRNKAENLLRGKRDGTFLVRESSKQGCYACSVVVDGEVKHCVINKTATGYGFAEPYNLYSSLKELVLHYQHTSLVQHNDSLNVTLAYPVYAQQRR
Experiment: PI3K alpha activity assay (ADP Hunter Plus)
Format: biochemical
Conditions: 50 μM ATP, 30 μM PIP2; read-out: PI3Kα IC50
Protocol: The kinase activity was measured by using the commercial ADP Hunter™ Plus assay available from DiscoveRx (#33-016), which is a homogeneous assay to measure the accumulation of ADP, a universal product of kinase activity. […] The reaction was carried out for 1 hour at 25° C. Reagent A and B were sequentially added to the wells and plates were incubated for 30 min at 37° C. Fluorescence counts were read in a Victor instrument (Perkin Elmer) with the recommended settings (544 and 580 nm as excitation and emission wavelengths, respectively).

SMILES | IC50 [nM]
CN(C)c1nc2ccccc2n1-c1nc2c(c(C(C)(C)S(C)(=O)=O)n1)OC[C@@H]1COCCN21 [Example 79] | 28600
CC(C)(c1nc(-c2c(F)ccc3[nH]ccc23)nc2c1OC[C@H]1COCCN21)S(C)(=O)=O [Example 26] | 2700
CS(=O)(=O)C1(c2nc(-c3ccc(F)c4[nH]ccc34)nc3c2OC[C@@H]2COCCN32)CCOCC1 [Example 106] | 50000
